Source: US20240287052A1, “NOVEL OXAZOLE DERIVATIVE AND PHARMACEUTICAL COMPOSITION FOR PREVENTING OR TREATING ALLERGIC DISEASES COMPRISING THE SAME” (AZCURIS CO., LTD., priority 2021, published 2024)
Like-named read-outs stand apart in the source and are kept apart here.

Columns and labels:
[1] = test system: Human liver cancer cell line HepG2 cells; assay: Cellular viability, WST-8 assay, without or with human liver microsomes; type: cell-based; settings: for Cellular viability (%) (+) microsome: HepG2, with human liver microsomes; for Cellular viability (%) (−) microsome: HepG2, without human liver microsomes
Description: Human liver cancer cell line HepG2 cells were cultured in a medium (high glucose Dulbecco's Modified Eagle Medium, DMEM, HyClone) supplemented with 10% fetal bovine serum (FBS, HyClone) and 1% antibiotic in a thermostat maintained at 37° C. with 5% CO2.
HepG2 cells, which are adherent cells, were […] or presence of human liver microsomes (Gibco) and NADPH regenerating system.
Cell cultures were exchanged using […] of medium (high glucose Dulbecco's Modified Eagle Medium, DMEM, HyClone) and incubated for 24 hours.
After adding 10 μL of WST-8 (abCam), the absorbance was obtained at 460 nm after 5 seconds of orbital shaking with a microplate reader (Tecan, Spark©) 2 hours later.
The mean of the three values obtained in triplicate was calculated and expressed as % cellular viability compared to vehicle treatment.

IL33 and ST2 binding = target: T1, IL33 and ST2 binding (Homo sapiens, UniProt O95760);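 also: plate ELISA with coated Flag-tagged human IL-33 and His-tagged human ST2, bound ST2 detected by anti-His HRP and TMB absorbance at 450 nm, 2 h compound incubation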
T1 sequence (O95760 112-270 limits assumed): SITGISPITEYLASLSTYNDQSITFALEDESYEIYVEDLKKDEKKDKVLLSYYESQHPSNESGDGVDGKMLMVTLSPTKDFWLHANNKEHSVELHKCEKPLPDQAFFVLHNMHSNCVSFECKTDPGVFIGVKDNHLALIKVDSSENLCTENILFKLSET
Description: 100 nM of Flag tagged IL-33 human recombinant protein was prepared in 1× coating buffer (Biolegend) and placed in a 96 well microplate (Coming) using a Multichannel pipette (Gilson) and coated for at least 12 hours at 4° C.
After washing three times with PBST (1×PBS (Welgene), 1% Tween 20 (sigma)), it was reacted with 1% BSA (Bovogen) blocking buffer for 1 hour at room temperature.
Samples containing 200 nM of His-tagged ST2 human recombinant protein and 60 μM or 200 μM Example synthetic compounds were prepared, added in equal volumes, and reacted for at least 2 hours at room temperature.
After washing three times with PBST (1×PBS (Welgene), 1% Tween 20 (sigma)), anti-His HRP (BioLegend) antibody was diluted 5000:1 and reacted for at least 1 hour at room temperature.
After washing three times with PBST (1×PBS (Welgene), 1% Tween 20 (sigma)), TMB substrate solution (Thermo) was added and reacted for more than 5 minutes. The reaction was stopped by adding 1 N HCl (Samchun) and the absorbance value was obtained at 450 nm after orbital shaking for 5 s with a Microplate reader (Tecan, Spark®).
The results derived from the program linked to the microplate reader were analyzed using an Excel program. IL33-ST2 binding rate (binding %) was calculated by averaging the three values obtained in triplicate, subtracting the positive control value, and converting the negative control value to 100%. The inhibition % value of each compound was obtained by subtracting the IL33-ST2 binding % from 100%, and the error range of triplicate was also obtained and reflected in the inhibition graph of the compound.

[2] = test system: IL-6 secretion in the human mast cell line HMC 1.1; assay: IL-6 production inhibition assay (IL-33 stimulated HMC 1.1 cells, IL-6 ELISA); type: cell-based; settings: for inhibition at 1 µM: 1 μM compound, read-out: Inhibition of hIL-6 production (%) 1 μM; for inhibition at 10 µM: 10 μM compound, read-out: Inhibition of hIL-6 production (%) 10 μM
Description: Human mast cell line HMC 1.1 cells were cultured in medium (Iscove's Modified Dulbecco's Medium, IMDM, HyClone) supplemented with […] fetal bovine serum (FBS, HyClone) and 1% antibiotics and maintained at 37° C. with 5% CO2.
HMC 1.1 cells, which are non-adherent cells, were cultured in 0.5 mL of culture medium containing 200 nM of IL-33 wild type human recombinant protein after centrifugation of cells in culture flasks filled to […] capacity and incubated for 24 hours with […], 10 μM, 25 μM, 30 μM or 50 μM of Example compound.
Medium was harvested by centrifugation (2,000×g, 5 min) and stored at −80° C. until ELISA assay.
Experiments were performed according to the protocol using the Human IL-6 ELISA kit (abCam).
The average of the three values obtained in triplicate was calculated and the amount of IL-6 secretion was measured using a standard curve. The measured IL-6 secretion was converted to 100% based on the vehicle treatment sample value to obtain the vehicle %.

| SMILES | inhibition (IL33 and ST2 binding; 30 µM) | inhibition at 1 µM ([2]; 24 hours) | inhibition at 10 µM ([2]; 24 hours) | other results |
| --- | --- | --- | --- | --- |
| CCOC(=O)c1coc(-c2ccc(C(F)(F)F)cc2)n1 [Compound 6, Ethyl 2-(4-(trifluoromethyl)phenyl)oxazole-4-carboxylate] | – | – | – | Cellular viability (%) (+) microsome ([1]; at 45 μM): 99 at %; Cellular viability (%) (−) microsome ([1]; at 45 μM): 66 at %; inhibition (IL33 and ST2 binding; 100 µM): 110% |
| CCOC(=O)c1nc(-c2ccc(C(F)(F)F)cc2)oc1-c1ccccc1[N+](=O)[O-] [Compound 32, Ethyl 5-(2-nitrophenyl)-2-(4-(trifluoromethyl)phenyl)oxazole-4-carboxylate] | 107% | – | – | Cellular viability (%) (+) microsome ([1]; at 25 μM): 95 at %; Cellular viability (%) (−) microsome ([1]; at 25 μM): 81 at %; inhibition (IL33 and ST2 binding; 100 µM): 108% |
| CCOC(=O)c1nc(-c2ccc(C(F)(F)F)cc2)oc1-c1ccc(OC)c(OC)c1 [Compound 47, Ethyl 5-(3,4-dimethoxyphenyl)-2-(4-(trifluoromethyl)phenyl)oxazole-4-carboxylate] | -57% | 36% | 26% | – |
| CCOC(=O)c1nc(-c2ccc(C(F)(F)F)cc2)oc1-c1cc(OC)cc(OC)c1 [Compound 48, Ethyl 5-(3,5-dimethoxyphenyl)-2-(4-(trifluoromethyl)phenyl)oxazole-4-carboxylate] | 87% | 22% | 39% | – |
| CCOC(=O)c1nc(-c2ccc(C(F)(F)F)cc2)oc1-c1cc(OC)c(OC)c(OC)c1 [Compound 49, Ethyl 2-(4-(trifluoromethyl)phenyl)-5-(3,4,5-trimethoxyphenyl)oxazole-4-carboxylate] | -65% | -2% | 16% | – |
| CCOC(=O)c1nc(-c2cc(F)cc(F)c2)oc1-c1ccccc1[N+](=O)[O-] [Compound 74, Ethyl 2-(3,5-difluorophenyl)-5-(2-nitrophenyl)oxazole-4-carboxylate] | – | – | – | Cellular viability (%) (+) microsome ([1]; at 45 μM): 96 at %; Cellular viability (%) (−) microsome ([1]; at 45 μM): 101 at % |
| CCOC(=O)c1nc(-c2ccc(C(F)(F)F)cc2)oc1-c1ccccc1N [Compound 99, Ethyl 5-(2-aminophenyl)-2-(4-(trifluoromethyl)phenyl)oxazole-4-carboxylate] | – | – | – | Cellular viability (%) (+) microsome ([1]; at 25 μM): 96 at %; Cellular viability (%) (−) microsome ([1]; at 25 μM): 79 at % |
| CC(=O)N1CCN(CCNC(=O)c2nc(-c3ccccc3C(F)(F)F)oc2-c2ccccc2)CC1 [Compound 128, N-(2-(4-acetylpiperazin-1-yl)ethyl)-5-phenyl-2-(2-(trifluoromethyl)phenyl)oxazole-4-carboxamide] | -28% | 66% | 80% | – |
| CCCNC(=O)c1nc(-c2ccc(C(F)(F)F)cc2)oc1-c1cccc(O)c1 [Compound 319, 5-(3-Hydroxyphenyl)-N-propyl-2-(4-(trifluoromethyl)phenyl)oxazole-4-carboxamide] | – | 75% | 80% | – |
| CCNC(=O)c1nc(-c2ccc(C(F)(F)F)cc2)oc1-c1ccc(O)c(O)c1 [Compound 321, 5-(3,4-Dihydroxyphenyl)-N-ethyl-2-(4-(trifluoromethyl)phenyl)oxazole-4-carboxamide] | – | 50% | 72% | – |

More lines, main results first:

| inhibition (IL33 and ST2 binding; 30 µM) | SMILES | inhibition at 1 µM ([2]; 24 hours) | inhibition at 10 µM ([2]; 24 hours) | other results |
| --- | --- | --- | --- | --- |
| 92% | CN1CCN(CCNC(=O)c2nc(-c3ccc(C(F)(F)F)cc3)oc2-c2ccccc2[N+](=O)[O-])CC1 [Compound 153, N-(2-(4-Methylpiperazin-1-yl)ethyl)-5-(2-nitrophenyl)-2-(4-(trifluoromethyl)phenyl)oxazole-4-carboxamide] | – | – | Cellular viability (%) (+) microsome ([1]; at 50 μM): 36 at %; Cellular viability (%) (−) microsome ([1]; at 50 μM): 19 at %; inhibition (IL33 and ST2 binding; 100 µM): 95% |
| 31% | O=C(NCCCn1ccnc1)c1nc(-c2ccc(C(F)(F)F)cc2)oc1-c1ccccc1[N+](=O)[O-] [Compound 158, N-(3-(1H-Imidazol-1-yl)propyl)-5-(2-nitrophenyl)-2-(4-(trifluoromethyl)phenyl)oxazole-4-carboxamide] | – | – | Cellular viability (%) (+) microsome ([1]; at 50 μM): 17 at %; Cellular viability (%) (−) microsome ([1]; at 50 μM): 17 at %; inhibition (IL33 and ST2 binding; 100 µM): 26% |
| 41% | CSc1ccc(-c2oc(-c3ccc(C(F)(F)F)cc3)nc2C(=O)NCCN2CCN(C(C)=O)CC2)cc1 [Compound 194, N-(2-(4-acetylpiperazin-1-yl)ethyl)-5-(4-(methylthio)phenyl)-2-(4-(trifluoromethyl)phenyl)oxazole-4-carboxamide] | 44% | 68% | – |
| 99% | CC(=O)N1CCN(CCNC(=O)c2nc(-c3ccc(C(F)(F)F)cc3)oc2-c2cccnc2)CC1 [Compound 197, N-(2-(4-acetylpiperazin-1-yl)ethyl)-5-(pyridin-3-yl)-2-(4-(trifluoromethyl)phenyl)oxazole-4-carboxamide] | 62% | 70% | – |
| 5% | COc1cccc(-c2oc(-c3ccc(C(F)(F)F)cc3)nc2C(=O)NCCN2CCN(C(C)=O)CC2)c1 [Compound 198, N-(2-(4-acetylpiperazin-1-yl)ethyl)-5-(3-methoxyphenyl)-2-(4-(trifluoromethyl)phenyl)oxazole-4-carboxamide] | 62% | 77% | – |
| -9% | CN(C)CCNC(=O)c1nc(-c2ccc(OC(F)(F)F)cc2)oc1-c1ccccc1 [Compound 203, N-(2-(Dimethylamino)ethyl)-5-phenyl-2-(4-(trifluoromethoxy)phenyl)oxazole-4-carboxamide] | – | – | Cellular viability (%) (+) microsome ([1]; at 50 μM): 30 at %; Cellular viability (%) (−) microsome ([1]; at 50 μM): 19 at %; inhibition (IL33 and ST2 binding; 100 µM): 14% |
| 87% | CCNC(=O)c1nc(-c2ccc(C(F)(F)F)cc2)oc1-c1cccc(OC)c1 [Compound 298, N-Ethyl-5-(3-methoxyphenyl)-2-(4-(trifluoromethyl)phenyl)oxazole-4-carboxamide] | 70% | 75% | inhibition at 0.1 µM ([2]; 0.1 μM compound, 24 hours, read-out: Inhibition of hIL-6 production (%) 0.1 μM): 12%; EC50 ([2]; read-out: Inhibition of hIL-6 production EC50): 640 nM |
| -17% | CCNC(=O)c1nc(-c2ccc(C(F)(F)F)cc2)oc1-c1ccccc1OC(F)(F)F [Compound 305, N-Ethyl-5-(2-(trifluoromethoxy)phenyl)-2-(4-(trifluoromethyl)phenyl)oxazole-4-carboxamide] | -4% | 26% | – |
| 38% | CCCNC(=O)c1nc(-c2ccc(C(F)(F)F)cc2)oc1-c1ccccc1OC(F)(F)F [Compound 306, N-Propyl-5-(2-(trifluoromethoxy)phenyl)-2-(4-(trifluoromethyl)phenyl)oxazole-4-carboxamide] | -38% | 45% | – |
| -5% | CCNC(=O)c1nc(-c2ccc(C(F)(F)F)cc2)oc1-c1cccc(C#N)c1 [Compound 311, 5-(3-Cyanophenyl)-N-ethyl-2-(4-(Trifluoromethyl)phenyl)oxazole-4-carboxamide] | 64% | 80% | – |
| -47% | CCNC(=O)c1nc(-c2ccc(OC)cc2)oc1-c1ccccc1 [Compound 312, N-Ethyl-2-(4-methoxyphenyl)-5-phenyloxazole-4-carboxamide] | 66% | 81% | – |
| -29% | CCNC(=O)c1nc(-c2cc(F)cc(F)c2)oc1-c1ccccc1 [Compound 313, 2-(3,5-Difluorophenyl)-N-ethyl-5-phenyloxazole-4-carboxamide] | -7% | 27% | – |
| -18% | CCNC(=O)c1nc(-c2cccc(Cl)c2)oc1-c1ccccc1 [Compound 314, 2-(3-Chlorophenyl)-N-ethyl-5-phenyloxazole-4-carboxamide] | 10% | 81% | – |
| -4% | CCNC(=O)c1nc(-c2ccc(C#N)cc2)oc1-c1ccccc1 [Compound 315, 2-(4-cyanophenyl)-N-ethyl-5-phenyloxazole-4-carboxamide] | 47% | 61% | – |
